# Measured values from PubChem BioAssay (NCI).
#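 How tested: cells in 96-well plates exposed to compound for 48 hours at five concentrations. TGI: total growth inhibition.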
# What was measured:
# Assay in all cases: NCI-60 cell line screen, 48 h
# HL-60(TB) leukemia = test system: HL-60(TB) leukemia
# ACHN renal = test system: ACHN renal
# K-562 leukemia = test system: K-562 leukemia
# UACC-62 melanoma = test system: UACC-62 melanoma
# HOP-92 NSCLC = test system: HOP-92 NSCLC
# OVCAR-3 ovarian = test system: OVCAR-3 ovarian
# RPMI-8226 leukemia = test system: RPMI-8226 leukemia
# SW-620 colon = test system: SW-620 colon
# CAKI-1 renal = test system: CAKI-1 renal
# OVCAR-5 ovarian = test system: OVCAR-5 ovarian
# UACC-257 melanoma = test system: UACC-257 melanoma
# T-47D breast = test system: T-47D breast
# MOLT-4 leukemia = test system: MOLT-4 leukemia
# PC-3 prostate = test system: PC-3 prostate
# TK-10 renal = test system: TK-10 renal
# NCI-H23 lung = test system: NCI-H23 lung
# MDA-MB-231 breast = test system: MDA-MB-231 breast
# HCT-15 colon = test system: HCT-15 colon
# LOX IMVI melanoma = test system: LOX IMVI melanoma
# SK-OV-3 ovarian = test system: SK-OV-3 ovarian
# MALME-3M melanoma = test system: MALME-3M melanoma
# EKVX NSCLC = test system: EKVX NSCLC
# NCI-H522 lung = test system: NCI-H522 lung
# SF-539 CNS = test system: SF-539 CNS
# SK-MEL-5 melanoma = test system: SK-MEL-5 melanoma
# UO-31 renal = test system: UO-31 renal
# M14 melanoma = test system: M14 melanoma
# A549 NSCLC = test system: A549 NSCLC
# SNB-75 CNS = test system: SNB-75 CNS
# HOP-62 NSCLC = test system: HOP-62 NSCLC
# HCC-2998 colon = test system: HCC-2998 colon
# CCRF-CEM leukemia = test system: CCRF-CEM leukemia
# COLO 205 colon = test system: COLO 205 colon
# HT29 colon = test system: HT29 colon
# 786-0 renal = test system: 786-0 renal
# IGROV1 ovarian = test system: IGROV1 ovarian
# OVCAR-8 ovarian = test system: OVCAR-8 ovarian
# KM12 colon = test system: KM12 colon
# SNB-19 CNS = test system: SNB-19 CNS
# A498 renal = test system: A498 renal
# NCI/ADR-RES ovarian = test system: NCI/ADR-RES ovarian
# SN12C renal = test system: SN12C renal
# NCI-H226 lung = test system: NCI-H226 lung
# SK-MEL-28 melanoma = test system: SK-MEL-28 melanoma
# U251 CNS = test system: U251 CNS
# HCT-116 colon = test system: HCT-116 colon
# RXF 393 renal = test system: RXF 393 renal
# MDA-N = test system: MDA-N
# MCF7 breast = test system: MCF7 breast
# HS 578T breast = test system: HS 578T breast
# MDA-MB-435 = test system: MDA-MB-435
# SF-295 CNS = test system: SF-295 CNS
# NCI-H460 lung = test system: NCI-H460 lung
# SK-MEL-2 melanoma = test system: SK-MEL-2 melanoma
# OVCAR-4 ovarian = test system: OVCAR-4 ovarian
# SF-268 CNS = test system: SF-268 CNS
# DU-145 prostate = test system: DU-145 prostate
# SR leukemia = test system: SR leukemia
smiles,measurement,setting,value
CCCCCc1cc2c(cc1O)CC[C@@H]1[C@@H]2CC[C@]2(C)[C@@H](O)CC[C@@H]12,TGI,HL-60(TB) leukemia,41.4 µM
same,TGI,ACHN renal,27.5 µM
same,TGI,K-562 leukemia,34.9 µM
same,TGI,UACC-62 melanoma,35.4 µM
same,TGI,HOP-92 NSCLC,32.3 µM
same,TGI,OVCAR-3 ovarian,29.4 µM
same,TGI,RPMI-8226 leukemia,62.2 µM
same,TGI,SW-620 colon,46.4 µM
same,TGI,CAKI-1 renal,40.4 µM
same,TGI,OVCAR-5 ovarian,33.6 µM
same,TGI,UACC-257 melanoma,43.1 µM
same,TGI,T-47D breast,55.5 µM
same,TGI,MOLT-4 leukemia,85.3 µM
same,TGI,PC-3 prostate,33.1 µM
same,TGI,TK-10 renal,34 µM
same,TGI,NCI-H23 lung,40.3 µM
same,TGI,MDA-MB-231 breast,33.3 µM
same,TGI,HCT-15 colon,31.3 µM
same,TGI,LOX IMVI melanoma,39.2 µM
same,TGI,SK-OV-3 ovarian,45 µM
same,TGI,MALME-3M melanoma,35.5 µM
same,TGI,EKVX NSCLC,36.8 µM
same,TGI,NCI-H522 lung,42.7 µM
same,TGI,SF-539 CNS,39.5 µM
same,TGI,SK-MEL-5 melanoma,34.7 µM
same,TGI,UO-31 renal,28.4 µM
same,TGI,M14 melanoma,29.4 µM
same,TGI,A549 NSCLC,37.9 µM
same,TGI,SNB-75 CNS,30.5 µM
same,TGI,HOP-62 NSCLC,41.7 µM
same,TGI,HCC-2998 colon,40 µM
same,TGI,CCRF-CEM leukemia,92.8 µM
same,TGI,COLO 205 colon,29.6 µM
same,TGI,HT29 colon,41.2 µM
same,TGI,786-0 renal,28.9 µM
same,TGI,IGROV1 ovarian,36.9 µM
same,TGI,OVCAR-8 ovarian,43 µM
same,TGI,KM12 colon,26.1 µM
same,TGI,SNB-19 CNS,40.3 µM
same,TGI,A498 renal,36.1 µM
same,TGI,NCI/ADR-RES ovarian,37.7 µM
same,TGI,SN12C renal,29.8 µM
same,TGI,NCI-H226 lung,32.6 µM
same,TGI,SK-MEL-28 melanoma,30.7 µM
same,TGI,U251 CNS,38.1 µM
same,TGI,HCT-116 colon,31.6 µM
same,TGI,RXF 393 renal,38.3 µM
same,TGI,MDA-N,35.1 µM
same,TGI,MCF7 breast,40.2 µM
same,TGI,HS 578T breast,46.5 µM
same,TGI,MDA-MB-435,30.6 µM
same,TGI,SF-295 CNS,28.2 µM
same,TGI,NCI-H460 lung,36.5 µM
same,TGI,SK-MEL-2 melanoma,43.5 µM
same,TGI,OVCAR-4 ovarian,42.8 µM
same,TGI,SF-268 CNS,38.9 µM
same,TGI,DU-145 prostate,31.4 µM
CC1(C)O[C@@H](CO)[C@H]([C@@]23OC[C@H]4OC(C)(C)OC4[C@@H]2OC(C)(C)O3)O1 (stereo partly drawn),TGI,HL-60(TB) leukemia,> 100 µM
same,TGI,ACHN renal,> 100 µM
same,TGI,K-562 leukemia,> 100 µM
same,TGI,HOP-92 NSCLC,> 100 µM
same,TGI,OVCAR-3 ovarian,> 100 µM
same,TGI,RPMI-8226 leukemia,> 100 µM
same,TGI,SW-620 colon,> 100 µM
same,TGI,OVCAR-5 ovarian,> 100 µM
same,TGI,T-47D breast,> 100 µM
same,TGI,MOLT-4 leukemia,> 100 µM
same,TGI,PC-3 prostate,> 100 µM
same,TGI,NCI-H23 lung,> 100 µM
same,TGI,MDA-MB-231 breast,> 100 µM
same,TGI,HCT-15 colon,> 100 µM
same,TGI,SR leukemia,> 100 µM
same,TGI,LOX IMVI melanoma,> 100 µM
same,TGI,SK-OV-3 ovarian,> 100 µM
same,TGI,MALME-3M melanoma,> 100 µM
same,TGI,EKVX NSCLC,> 100 µM
same,TGI,NCI-H522 lung,> 100 µM
same,TGI,SK-MEL-5 melanoma,> 100 µM
same,TGI,UO-31 renal,> 100 µM
same,TGI,M14 melanoma,> 100 µM
same,TGI,A549 NSCLC,> 100 µM
same,TGI,SNB-75 CNS,> 100 µM
same,TGI,HOP-62 NSCLC,> 100 µM
same,TGI,HCC-2998 colon,> 100 µM
same,TGI,COLO 205 colon,> 100 µM
same,TGI,HT29 colon,> 100 µM
same,TGI,786-0 renal,> 100 µM
same,TGI,IGROV1 ovarian,> 100 µM
same,TGI,OVCAR-8 ovarian,> 100 µM
same,TGI,KM12 colon,> 100 µM
same,TGI,SNB-19 CNS,> 100 µM
same,TGI,NCI/ADR-RES ovarian,> 100 µM
same,TGI,SN12C renal,> 100 µM
same,TGI,NCI-H226 lung,> 100 µM
same,TGI,SK-MEL-28 melanoma,> 100 µM
same,TGI,U251 CNS,> 100 µM
same,TGI,HCT-116 colon,> 100 µM
same,TGI,RXF 393 renal,> 100 µM
same,TGI,MDA-N,> 100 µM
same,TGI,MCF7 breast,> 100 µM
same,TGI,HS 578T breast,> 100 µM
same,TGI,MDA-MB-435,> 100 µM
same,TGI,SF-295 CNS,> 100 µM
same,TGI,NCI-H460 lung,> 100 µM
same,TGI,SK-MEL-2 melanoma,> 100 µM
same,TGI,OVCAR-4 ovarian,> 100 µM
same,TGI,SF-268 CNS,> 100 µM
same,TGI,DU-145 prostate,> 100 µM
